Assay results reported in paper PMC3265452 (PLoS Neglected Tropical Diseases, 2012).
Counter-ions that a name gives are not always drawn. Like-named read-outs stand apart in the source and are kept apart here.

What was measured:
[1] = molecular target: AaDOP1 (Aedes aegypti, UniProt H6D5H1); assay: CRELuc reporter dose-response in HEK293 cells stably expressing AaDOP1; format: cell-based
[2] = molecular target: T1, AaDOP2 (Aedes aegypti, UniProt H6D5H2); assay: cell-based
[3] = molecular target: T1, AaDOP2; assay: AaDOP2 antagonist screen of the LOPAC1280 library (HEK-CRELuc-Aadop2 cells, luminescence); format: cell-based; conditions: for inhibition at 10 µM: read-out: % of the SCH23390 effect (percent inhibition of receptor response relative to the SCH23390 control)
[4] = molecular target: T1, AaDOP2; assay: cell-based; remark: listed apart in the source
[5] = HEK293 cells stably expressing CRELuc reporter and AaDOP1, read-out: EC50 values AaDOP1
[6] = 10 µM compound, 300 nM dopamine, 2 hr, hit = compound effect <20

Chain of AaDOP1 (H6D5H1 entry or part of it): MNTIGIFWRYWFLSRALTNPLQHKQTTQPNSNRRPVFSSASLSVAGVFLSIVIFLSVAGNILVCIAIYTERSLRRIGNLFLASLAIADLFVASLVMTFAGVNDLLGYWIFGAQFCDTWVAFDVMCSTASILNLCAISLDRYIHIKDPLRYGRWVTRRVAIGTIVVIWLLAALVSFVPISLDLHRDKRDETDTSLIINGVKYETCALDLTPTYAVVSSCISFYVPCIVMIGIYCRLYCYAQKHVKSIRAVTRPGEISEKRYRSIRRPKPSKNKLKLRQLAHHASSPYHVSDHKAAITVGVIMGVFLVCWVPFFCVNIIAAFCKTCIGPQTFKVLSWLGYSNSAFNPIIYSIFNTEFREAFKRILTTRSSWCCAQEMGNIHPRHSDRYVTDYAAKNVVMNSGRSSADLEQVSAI
T1 sequence (H6D5H2 1-476): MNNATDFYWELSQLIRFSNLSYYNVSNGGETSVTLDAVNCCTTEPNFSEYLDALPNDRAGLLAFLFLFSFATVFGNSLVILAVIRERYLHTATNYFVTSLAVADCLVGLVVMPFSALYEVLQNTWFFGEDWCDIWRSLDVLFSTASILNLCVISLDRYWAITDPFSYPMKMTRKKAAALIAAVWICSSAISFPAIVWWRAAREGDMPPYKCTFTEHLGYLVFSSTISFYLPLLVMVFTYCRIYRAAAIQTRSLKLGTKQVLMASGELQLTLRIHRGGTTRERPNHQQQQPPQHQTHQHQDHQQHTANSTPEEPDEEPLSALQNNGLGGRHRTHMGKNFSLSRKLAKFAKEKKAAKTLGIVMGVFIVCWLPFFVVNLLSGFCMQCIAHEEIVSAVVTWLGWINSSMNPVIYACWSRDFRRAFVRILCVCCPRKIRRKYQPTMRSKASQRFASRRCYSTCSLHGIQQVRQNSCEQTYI

## Oc1cc2c(cc1O)[C@H]1c3ccccc3CN[C@@H]1CC2 (racemic) [Dihydrexidine, dihydrexidine]
[1]; [5]
  EC50: 0.0069 ± 0.0015 µM
[2]
  EC50: 0.29 ± 0.054 µM

## NC[C@H](O)c1ccc(O)c(O)c1 [Compound 106, L(-)-Norepinephrine bitartrate]
[1]
  EC50: 0.76 ± 0.18 µM
[3]
  Compound effect (percent receptor signaling in presence of test compound, relative lux units relative to the SCH23390 control): 115
[2]
  EC50: ≥ 10 µM

## CNC[C@H](O)c1ccc(O)c(O)c1 [Compound 491, (-)-Epinephrine bitartrate]
[2]
  EC50: ≥ 10 µM

## OCCN1CCN(CC/C=C2/c3ccccc3Sc3ccc(C(F)(F)F)cc32)CC1 [Compound 541, cis-(Z)-Flupenthixol dihydrochloride, reference compound]
[3]
  inhibition at 10 µM: 88%
[4]
  IC50: 0.02 ± 0.0054 µM

## NCCc1c[nH]cn1 [Compound 596, Histamine dihydrochloride]
[1]; HEK293 cells stably expressing CRELuc reporter and AaDOP1, ≥10 µM considered lacking intrinsic activity, read-out: EC50 values AaDOP1
  EC50: ≥ 10 µM
[2]
  EC50: ≥ 10 µM

## NCCc1c[nH]c2ccc(O)cc12 [Compound 613, Serotonin hydrochloride]
[1]
  EC50: ≥ 10 µM
[3]
  Compound effect (percent receptor signaling in presence of test compound, relative lux units relative to the SCH23390 control): 110
[2]
  EC50: ≥ 10 µM

## O=C(Nc1ccc([N+](=O)[O-])cc1Cl)c1cc(Cl)ccc1O [Compound 847, Niclosamide, reference compound]
[3]
  Compound effect (percent receptor signaling in presence of test compound, relative lux units relative to the SCH23390 control): 5
  inhibition at 10 µM: 95%
[4]
  IC50: ≥ 10 µM

## Oc1cc(O)cc(/C=C/c2ccc(O)c(O)c2)c1 [Compound 916, Piceatannol, reference compound]
[3]
  Compound effect (percent receptor signaling in presence of test compound, relative lux units relative to the SCH23390 control): 2
  inhibition at 10 µM: 98%
[4]
  IC50: ≥ 10 µM

## Oc1ccc(/C=C/c2cc(O)cc(O)c2)cc1 [Compound 1048, Resveratrol, reference compound]
[3]
  Compound effect (percent receptor signaling in presence of test compound, relative lux units relative to the SCH23390 control): 11
  inhibition at 10 µM: 89%
[4]
  IC50: ≥ 10 µM

## NCCc1ccc(O)cc1 [Compound 1162, 4-Hydroxyphenethylamine hydrochloride]
[1]
  EC50: ≥ 10 µM
[2]
  EC50: ≥ 10 µM

## Cc1cc(C(C)(C)C)cc(C)c1CC1=NCCN1 [Compound 1271, Xylometazoline hydrochloride]
[3]
  Compound effect (percent receptor signaling in presence of test compound, relative lux units relative to the SCH23390 control): 85

## CCCn1c(=O)c2[nH]c(-c3ccc(OCC(=O)NCCN)cc3)nc2n(CCC)c1=O [Compound 1272, Xanthine amine congener]
[3]
  Compound effect (percent receptor signaling in presence of test compound, relative lux units relative to the SCH23390 control): 90

## COC(=O)[C@@H]1[C@H]2C[C@H]3c4[nH]c5ccccc5c4CCN3C[C@@H]2CC[C@@H]1O [Compound 1273, Yohimbine hydrochloride]
[3]
  Compound effect (percent receptor signaling in presence of test compound, relative lux units relative to the SCH23390 control): 85

## COc1ccc(CCN(C)CCc2ccc(OC)c(OC)c2)cc1OC.Cl [Compound 1274, YS-035 hydrochloride]
[3]; [6]
  Compound effect (percent receptor signaling in presence of test compound, relative lux units relative to the SCH23390 control): 93%

## OCc1ccc(-c2nn(Cc3ccccc3)c3ccccc23)o1 [Compound 1275, YC-1]
[3]
  Compound effect (percent receptor signaling in presence of test compound, relative lux units relative to the SCH23390 control): 136

## CCCOc1ccccc1-c1nc2nn[nH]c2c(=O)[nH]1 [Compound 1276, Zaprinast]
[3]
  Compound effect (percent receptor signaling in presence of test compound, relative lux units relative to the SCH23390 control): 115

## NS(=O)(=O)Cc1noc2ccccc12 [Compound 1277, Zonisamide sodium]
[3]
  Compound effect (percent receptor signaling in presence of test compound, relative lux units relative to the SCH23390 control): 130

## COc1cc(-c2ccc(=O)[nH]n2)ccc1OC(F)F [Compound 1278, Zardaverine]
[3]
  Compound effect (percent receptor signaling in presence of test compound, relative lux units relative to the SCH23390 control): 125

## CN1CCN(C(=O)OC2c3nccnc3C(=O)N2c2ccc(Cl)cn2)CC1 (stereo not shown) [Compound 1279, Zopiclone]
[3]
  Compound effect (percent receptor signaling in presence of test compound, relative lux units relative to the SCH23390 control): 99

## CN(C)C/C=C(/c1ccc(Br)cc1)c1cccnc1 [Compound 1280, Zimelidine dihydrochloride]
[3]
  Compound effect (percent receptor signaling in presence of test compound, relative lux units relative to the SCH23390 control): 80

## Oc1cc2c(cc1O)C(c1ccccc1)CNCC2 (stereo not shown) [SKF 38393]
[1]; [5]
  EC50: 0.31 ± 0.046 µM
[2]
  EC50: ≥ 10 µM

## (+)-Catechin Hydrate [Compound 230]
[3]; [6]
  Compound effect (percent receptor signaling in presence of test compound, relative lux units relative to the SCH23390 control): 111%

## (-)-Bicuculline methbromide, 1(S), 9(R) [Compound 202]
[3]
  Compound effect (percent receptor signaling in presence of test compound, relative lux units relative to the SCH23390 control): 94

## (-)-Eseroline fumarate [Compound 504]
[3]
  Compound effect (percent receptor signaling in presence of test compound, relative lux units relative to the SCH23390 control): 56

## (-)-Perillic acid [Compound 965]
[3]; [6]
  Compound effect (percent receptor signaling in presence of test compound, relative lux units relative to the SCH23390 control): 87%

## (-)-Scopolamine methyl nitrate [Compound 1087]
[3]
  Compound effect (percent receptor signaling in presence of test compound, relative lux units relative to the SCH23390 control): 113

## (±)-PD 128,907 hydrochloride [Compound 1024]
[3]; [6]
  Compound effect (percent receptor signaling in presence of test compound, relative lux units relative to the SCH23390 control): 95%

## (±)-Pindobind [Compound 1010]
[3]; [6]
  Compound effect (percent receptor signaling in presence of test compound, relative lux units relative to the SCH23390 control): 65%

## Adenosine 3',5'-cyclic monophosphate [Compound 105]
[3]
  Compound effect (percent receptor signaling in presence of test compound, relative lux units relative to the SCH23390 control): 100

## Ceramide [Compound 235]
[3]; [6]
  Compound effect (percent receptor signaling in presence of test compound, relative lux units relative to the SCH23390 control): 87%

## Cortexolone maleate [Compound 1081]
[3]; [6]
  Compound effect (percent receptor signaling in presence of test compound, relative lux units relative to the SCH23390 control): 83%

## Dequalinium analog, C-14 linker [Compound 368]
[3]; [6]
  Compound effect (percent receptor signaling in presence of test compound, relative lux units relative to the SCH23390 control): 39%

## Histamine, R(-)-alpha-methyl-, dihydrochloride [Compound 622]
[3]
  Compound effect (percent receptor signaling in presence of test compound, relative lux units relative to the SCH23390 control): 127

## IMID-4F hydrochloride [Compound 639]
[3]; [6]
  Compound effect (percent receptor signaling in presence of test compound, relative lux units relative to the SCH23390 control): 109%

## L-Leucinethiol, oxidized dihydrochloride [Compound 709]
[3]; [6]
  Compound effect (percent receptor signaling in presence of test compound, relative lux units relative to the SCH23390 control): 81%

## MDL 26,630 trihydrochloride [Compound 828]
[3]; [6]
  Compound effect (percent receptor signaling in presence of test compound, relative lux units relative to the SCH23390 control): 93%

## MHPG piperazine [Compound 577]
[3]
  Compound effect (percent receptor signaling in presence of test compound, relative lux units relative to the SCH23390 control): 104

## NCS-356 [Compound 849]
[3]
  Compound effect (percent receptor signaling in presence of test compound, relative lux units relative to the SCH23390 control): 99

## NS 521 oxalate [Compound 869]
[3]
  Compound effect (percent receptor signaling in presence of test compound, relative lux units relative to the SCH23390 control): 75

## OXA-22 iodide [Compound 326]
[3]
  Compound effect (percent receptor signaling in presence of test compound, relative lux units relative to the SCH23390 control): 88

## Oligomycin A [Compound 906]
[3]
  Compound effect (percent receptor signaling in presence of test compound, relative lux units relative to the SCH23390 control): 82

## Phenylbenzene-omega-phosphono-alpha-amino acid [Compound 1021]
[3]
  Compound effect (percent receptor signaling in presence of test compound, relative lux units relative to the SCH23390 control): 95

## Picrotoxin [Compound 924]
[3]
  Compound effect (percent receptor signaling in presence of test compound, relative lux units relative to the SCH23390 control): 98

## Pyrazinecarboxamide [Compound 966]
[3]; [6]
  Compound effect (percent receptor signaling in presence of test compound, relative lux units relative to the SCH23390 control): 79%

## R(-)-2,10,11-Trihydroxy-N-propylnoraporphine hydrobromide [Compound 438]
[3]; [6]
  Compound effect (percent receptor signaling in presence of test compound, relative lux units relative to the SCH23390 control): 88%

## R(-)-Apocodeine hydrochloride [Compound 435]
[3]
  Compound effect (percent receptor signaling in presence of test compound, relative lux units relative to the SCH23390 control): 98

## R(-)-Isoproterenol (+)-bitartrate [Compound 640]
[3]; [6]
  Compound effect (percent receptor signaling in presence of test compound, relative lux units relative to the SCH23390 control): 118%

## R(-)-Me5 [Compound 734]
[3]
  Compound effect (percent receptor signaling in presence of test compound, relative lux units relative to the SCH23390 control): 93

## R(-)-Propylnorapomorphine hydrochloride [Compound 436]
[3]
  Compound effect (percent receptor signaling in presence of test compound, relative lux units relative to the SCH23390 control): 99

## R-(-)-Deprenyl hydrochloride [Compound 813]
[3]
  Compound effect (percent receptor signaling in presence of test compound, relative lux units relative to the SCH23390 control): 93

## R-(-)-Desmethyldeprenyl hydrochloride [Compound 407]
[3]
  Compound effect (percent receptor signaling in presence of test compound, relative lux units relative to the SCH23390 control): 90

## S(-)-Timolol maleate [Compound 1191]
[3]
  Compound effect (percent receptor signaling in presence of test compound, relative lux units relative to the SCH23390 control): 88

## S-Nitroso-N-acetylpenicillamine [Compound 846]
[3]; [6]
  Compound effect (percent receptor signaling in presence of test compound, relative lux units relative to the SCH23390 control): 88%

## SB 224289 hydrochloride [Compound 1142]
[3]
  Compound effect (percent receptor signaling in presence of test compound, relative lux units relative to the SCH23390 control): 95

## SKF 83565 hydrobromide [Compound 1096]
[3]; [6]
  Compound effect (percent receptor signaling in presence of test compound, relative lux units relative to the SCH23390 control): 57%

## SKF 95282 dimaleate [Compound 1237]
[3]
  Compound effect (percent receptor signaling in presence of test compound, relative lux units relative to the SCH23390 control): 96

## Seglitide [Compound 1079, reference compound]
[3]
  Compound effect (percent receptor signaling in presence of test compound, relative lux units relative to the SCH23390 control): 102

## TFPI hydrochloride [Compound 1197]
[3]; [6]
  Compound effect (percent receptor signaling in presence of test compound, relative lux units relative to the SCH23390 control): 96%

## VER-3323 hemifumarate salt [Compound 706]
[3]
  Compound effect (percent receptor signaling in presence of test compound, relative lux units relative to the SCH23390 control): 82

## WB 64 [Compound 1263]
[3]
  Compound effect (percent receptor signaling in presence of test compound, relative lux units relative to the SCH23390 control): 83

## cis-(±)-8-OH-PBZI hydrobromide [Compound 918]
[3]; [6]
  Compound effect (percent receptor signaling in presence of test compound, relative lux units relative to the SCH23390 control): 88%
